According to patent publication US20070281992A1, “COMBINATION OF GYRASE B INHIBITORS AND PROTEIN SYNTHESIS INHIBITORS AND USES THEREOF” (priority 2006, published 2007):
Where two headings read alike, the source gives them in different places.

Columns and labels:
[1] = tested on: Methicillin-Susceptible Staphylococcus aureus Isolates; experiment: MIC assay (NCCLS broth dilution), MSSA clinical isolates; format: cell-based
Protocol: (§1) Antibiotics: novobiocin, tetracycline, minocycline, oxacillin, and vancomycin were all purchased from Sigma-Aldrich. Linezolid was obtained from Pfizer, Inc. Novobiocin/tetracycline and novobiocin/minocycline were tested in a 2.5:1 ratio to mimic the serum levels. (Vavra, J. J., 1967, Development of resistance to novobiocin, tetracycline, and novobiocin-tetracycline combinations in Staphylococcus aureus populations, J. Bacteriol 93(3):801). Compounds were tested across a concentration range consisting of 11 two-fold serial dilutions of test agent.
(§2) Stock solutions were prepared in sterile deionized water; novobiocin stock concentration was 1600 μg/mL and all other drugs stock solutions were prepared at 640 μg/mL. The stock solutions were allowed to sit at room temperature for one hour to auto-sterilize prior to use in the test. All compounds were in solution in water. The control agent was vancomycin hydrochloride, Sigma Chemical Lot # 015K0825.
(§3) The test organisms for the assay were 52 MSSA, 52 MRSA, 8 VISA, 7 VISE, and 3 LRSA isolates. Quality control strains included Staphylococcus aureus 0100 (ATCC 29213) and Enterococcus faecalis (ATCC 29212).
(§4) The MIC assay was performed according to published NCCLS guidelines. (National Committee for Clinical Laboratory Standards, Methods for Dilution Antimicrobial Susceptibility Tests for Bacteria that Grow Aerobically; Approved Standard-Sixth Edition, NCCLS Document M7-A6 [ISBN 1-56238-486-4], NCCLS, 940 West Valley Road, Suite 1400, Wayne, Pa. 19087-1898 USA, 2003). The test medium was Mueller Hinton II Broth for all organisms.

[2] = tested on: Methicillin-Resistant Staphylococcus aureus Isolates; experiment: MIC assay (NCCLS broth dilution), MRSA clinical isolates; format: cell-based; details: for MIC: Staphylococcus aureus, read-out: Minimal Inhibitory Concentration
Protocol: as §1, §2, §3, §4

[3] = Staphylococcus aureus, 52 MSSA isolates, combinations at 2.5:1, given as NB/partner

CO[C@@H]1[C@@H](OC(N)=O)[C@@H](O)[C@H](Oc2ccc3c(O)c(NC(=O)c4ccc(O)c(CC=C(C)C)c4)c(=O)oc3c2C)OC1(C)C [NB, novobiocin]
.08 to 10 µg/mL: MIC Range ([1]; 52 MSSA isolates, Mueller Hinton II Broth, combinations at 2.5:1, given as NB/partner)
0.31 µg/mL: MIC ([1]; Staphylococcus aureus, MSSA isolate 135, 03MAR06, read-out: Minimal Inhibitory Concentration) | MIC ([1]; Staphylococcus aureus, MSSA isolate 753, 22FEB06, read-out: Minimal Inhibitory Concentration) | MIC ([1]; Staphylococcus aureus, MSSA isolate 754, 22FEB06, read-out: Minimal Inhibitory Concentration) | MIC ([1]; Staphylococcus aureus, MSSA isolate 754, 24FEB06, read-out: Minimal Inhibitory Concentration) | MIC ([1]; Staphylococcus aureus, MSSA isolate 755, 22FEB06, read-out: Minimal Inhibitory Concentration) | MIC ([1]; Staphylococcus aureus, MSSA isolate 779, 22FEB06, read-out: Minimal Inhibitory Concentration) | MIC ([1]; Staphylococcus aureus, MSSA isolate 780, 03MAR06, read-out: Minimal Inhibitory Concentration) | MIC ([1]; Staphylococcus aureus, MSSA isolate 783, 22FEB06, read-out: Minimal Inhibitory Concentration) | MIC ([1]; Staphylococcus aureus, MSSA isolate 784, 22FEB06, read-out: Minimal Inhibitory Concentration) | MIC ([1]; Staphylococcus aureus, MSSA isolate 789, 24FEB06, read-out: Minimal Inhibitory Concentration) | MIC ([1]; Staphylococcus aureus, MSSA isolate 790, 24FEB06, read-out: Minimal Inhibitory Concentration) | MIC ([1]; Staphylococcus aureus, MSSA isolate 793, 24FEB06, read-out: Minimal Inhibitory Concentration) | MIC ([1]; Staphylococcus aureus, MSSA isolate 794, 24FEB06, read-out: Minimal Inhibitory Concentration) | MIC ([1]; Staphylococcus aureus, MSSA isolate 995, 03MAR06, read-out: Minimal Inhibitory Concentration) | MIC ([1]; Staphylococcus aureus, MSSA isolate 996, 22FEB06, read-out: Minimal Inhibitory Concentration) | MIC ([1]; Staphylococcus aureus, MSSA isolate 997, 22FEB06, read-out: Minimal Inhibitory Concentration) | MIC ([1]; Staphylococcus aureus, MSSA isolate 998, 03MAR06, read-out: Minimal Inhibitory Concentration) | MIC ([1]; Staphylococcus aureus, MSSA isolate 1001, 24FEB06, read-out: Minimal Inhibitory Concentration) | MIC ([1]; Staphylococcus aureus, MSSA isolate 1006, 24FEB06, read-out: Minimal Inhibitory Concentration) | MIC ([1]; Staphylococcus aureus, MSSA isolate 1007, 24FEB06, read-out: Minimal Inhibitory Concentration) | MIC ([1]; Staphylococcus aureus, MSSA isolate 1134, 24FEB06, read-out: Minimal Inhibitory Concentration) | MIC ([1]; Staphylococcus aureus, MSSA isolate 1654, 03MAR06, read-out: Minimal Inhibitory Concentration) | MIC ([1]; Staphylococcus aureus, MSSA isolate 1666, 03MAR06, read-out: Minimal Inhibitory Concentration) | MIC ([2]; MRSA isolate 757, 24FEB06)
0.08 µg/mL: MIC ([1]; Staphylococcus aureus, MSSA isolate 134, 03MAR06, read-out: Minimal Inhibitory Concentration) | MIC ([1]; Staphylococcus aureus, MSSA isolate 1003, 03MAR06, read-out: Minimal Inhibitory Concentration) | MIC ([1]; Staphylococcus aureus, MSSA isolate 1005, 24FEB06, read-out: Minimal Inhibitory Concentration) | MIC ([2]; MRSA isolate 758, 03MAR06) | MIC ([2]; MRSA isolate 760, 03MAR06)
≦.04-.62 μg/ml: MIC Range ([2]; 52 MRSA isolates, combinations at 2.5:1, given as NB/partner)
0.625 µg/mL: MIC ([1]; Staphylococcus aureus, MSSA isolate 1008, 24FEB06, read-out: Minimal Inhibitory Concentration)
0.15 µg/mL: MIC ([1]; Staphylococcus aureus, MSSA isolate 133, 03MAR06, read-out: Minimal Inhibitory Concentration) | MIC ([1]; Staphylococcus aureus, MSSA isolate 756, 03MAR06, read-out: Minimal Inhibitory Concentration) | MIC ([1]; Staphylococcus aureus, MSSA isolate 781, 03MAR06, read-out: Minimal Inhibitory Concentration) | MIC ([1]; Staphylococcus aureus, MSSA isolate 782, 22FEB06, read-out: Minimal Inhibitory Concentration) | MIC ([1]; Staphylococcus aureus, MSSA isolate 785, 22FEB06, read-out: Minimal Inhibitory Concentration) | MIC ([1]; Staphylococcus aureus, MSSA isolate 786, 22FEB06, read-out: Minimal Inhibitory Concentration) | MIC ([1]; Staphylococcus aureus, MSSA isolate 787, 22FEB06, read-out: Minimal Inhibitory Concentration) | MIC ([1]; Staphylococcus aureus, MSSA isolate 788, 22FEB06, read-out: Minimal Inhibitory Concentration) | MIC ([1]; Staphylococcus aureus, MSSA isolate 791, 24FEB06, read-out: Minimal Inhibitory Concentration) | MIC ([1]; Staphylococcus aureus, MSSA isolate 792, 03MAR06, read-out: Minimal Inhibitory Concentration) | MIC ([1]; Staphylococcus aureus, MSSA isolate 994, 22FEB06, read-out: Minimal Inhibitory Concentration) | MIC ([1]; Staphylococcus aureus, MSSA isolate 999, 22FEB06, read-out: Minimal Inhibitory Concentration) | MIC ([1]; Staphylococcus aureus, MSSA isolate 1000, 24FEB06, read-out: Minimal Inhibitory Concentration) | MIC ([1]; Staphylococcus aureus, MSSA isolate 1002, 24FEB06, read-out: Minimal Inhibitory Concentration) | MIC ([1]; Staphylococcus aureus, MSSA isolate 1009, 24FEB06, read-out: Minimal Inhibitory Concentration) | MIC ([1]; Staphylococcus aureus, MSSA isolate 1131, 24FEB06, read-out: Minimal Inhibitory Concentration) | MIC ([1]; Staphylococcus aureus, MSSA isolate 1132, 03MAR06, read-out: Minimal Inhibitory Concentration) | MIC ([1]; Staphylococcus aureus, MSSA isolate 1133, 24FEB06, read-out: Minimal Inhibitory Concentration) | MIC ([1]; Staphylococcus aureus, MSSA isolate 1656, 03MAR06, read-out: Minimal Inhibitory Concentration) | MIC ([1]; Staphylococcus aureus, MSSA isolate 1662, 03MAR06, read-out: Minimal Inhibitory Concentration) | MIC ([1]; Staphylococcus aureus, MSSA isolate 1663, 03MAR06, read-out: Minimal Inhibitory Concentration) | MIC ([1]; Staphylococcus aureus, MSSA isolate 1667, 03MAR06, read-out: Minimal Inhibitory Concentration) | MIC ([1]; Staphylococcus aureus, MSSA isolate 1668, 03MAR06, read-out: Minimal Inhibitory Concentration) | MIC ([1]; Staphylococcus aureus, MSSA isolate 1671, 03MAR06, read-out: Minimal Inhibitory Concentration) | MIC50 [1, 3] | MIC ([2]; MRSA isolate 758, 24FEB06) | MIC ([2]; MRSA isolate 760, 24FEB06)
0.08 to 0.62 µg/mL: MIC Range ([1]; the other 51 MSSA isolates (without #1728))
0.312 µg/mL: MIC90 [1, 3]
10 µg/mL: MIC ([1]; Staphylococcus aureus, MSSA isolate 1728, 03MAR06, read-out: Minimal Inhibitory Concentration) | MIC ([1]; Staphylococcus aureus, MSSA isolate 1728, retest 09MAR06, read-out: Minimal Inhibitory Concentration) | MIC ([1]; Staphylococcus aureus, MSSA isolate #1728 (novobiocin-resistant), read-out: MIC)
